Test results from patent US12162888B2, “Carboxamides as ubiquitin-specific protease inhibitors” (Valo Early Discovery, Inc., priority 2018, dated 2024).

Biological target: T1, USP25 (USP25-His6, Boston Biochem E-546) (Homo sapiens, UniProt Q9UHP3)
T1 construct: His6 (C); purchased Boston Biochem E-546
T1 sequence (Q9UHP3 1-1055): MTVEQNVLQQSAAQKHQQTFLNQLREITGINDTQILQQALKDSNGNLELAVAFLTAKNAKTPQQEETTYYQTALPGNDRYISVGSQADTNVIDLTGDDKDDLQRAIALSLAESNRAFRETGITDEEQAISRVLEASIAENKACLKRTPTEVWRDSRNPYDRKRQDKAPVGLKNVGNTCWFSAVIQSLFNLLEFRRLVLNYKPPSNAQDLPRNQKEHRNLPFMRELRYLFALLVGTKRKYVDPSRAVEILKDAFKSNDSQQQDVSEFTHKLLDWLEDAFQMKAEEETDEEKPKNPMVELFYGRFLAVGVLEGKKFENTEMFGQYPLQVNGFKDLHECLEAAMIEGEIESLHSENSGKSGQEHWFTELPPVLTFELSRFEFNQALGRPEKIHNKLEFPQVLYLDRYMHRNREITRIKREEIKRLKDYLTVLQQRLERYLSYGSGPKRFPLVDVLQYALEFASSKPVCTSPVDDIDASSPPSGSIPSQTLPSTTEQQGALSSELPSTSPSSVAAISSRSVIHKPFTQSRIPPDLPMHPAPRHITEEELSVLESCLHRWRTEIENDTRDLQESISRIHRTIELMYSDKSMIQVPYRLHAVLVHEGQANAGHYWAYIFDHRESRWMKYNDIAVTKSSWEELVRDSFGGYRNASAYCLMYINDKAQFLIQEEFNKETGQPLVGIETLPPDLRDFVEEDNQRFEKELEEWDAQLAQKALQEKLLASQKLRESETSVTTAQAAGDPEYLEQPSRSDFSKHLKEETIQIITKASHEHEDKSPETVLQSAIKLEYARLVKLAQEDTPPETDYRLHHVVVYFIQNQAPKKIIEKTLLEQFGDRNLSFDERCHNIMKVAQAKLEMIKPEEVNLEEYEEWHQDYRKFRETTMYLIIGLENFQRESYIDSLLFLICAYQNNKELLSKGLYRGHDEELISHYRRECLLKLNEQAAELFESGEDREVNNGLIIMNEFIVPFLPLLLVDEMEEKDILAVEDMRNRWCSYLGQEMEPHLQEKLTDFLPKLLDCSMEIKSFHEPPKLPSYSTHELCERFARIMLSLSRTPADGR
Assay: Ubiquitin-Rhodamine 110 Assay for USP25 Activity, Example A-3
Assay type: biochemical
Settings: Ubiquitin-Rhodamine 110 assay, Example A-3; IC50 ranges; read-out: USP25 A-3 IC50
Outline: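 USP25-His6 ([…] final as stated) preincubated 30 min with compound (10-point, 25 μM to 1.3 nM), then Ub-Rh110 at 25 nM (<<Km) added in pH 8.0 Tris buffer with BME, BGG and Triton X-100. Reaction stopped after 45 min at room temperature with 10 mM citric acid; fluorescence read at 485/535 nm.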

For `N#Cc1c(N2CC3CCC(C2)N3)cc(F)c2c1OC[C@H](NC(=O)c1cnc3c(c1)[C@@H]1CC1CN3)C2` (stereo partly drawn) [Example 228, (6aS,7aR)-N-[(3R)-8-cyano-7-(3,8-diazabicyclo[3.2.1]octan-3-yl}-5-fluoro-3,4-dihydro-2H-1-benzopyran-3-yl]-5H,6H,6aH,7H,7aH-cyclopropa[c]1,8-naphthyridine-2-carboxamide], the IC50 was 200 to 2000 nM.

Same assay, conditions: Ubiquitin-Rhodamine 110 assay, Example A-3; read-out: USP25 A-3 IC50 range

First: Cc1cnc2c(N)c(C(=O)N[C@H]3CCc4c(C#N)c(N5CC6CCC(C5)N6)cc(F)c4C3)sc2n1 (single isomer, unassigned) [Example 14-19]
Second: Cc1ccc2c(N)c(C(=O)N[C@H]3CCc4c(C#N)c(N5CC6CCC(C5)N6)cc(F)c4C3)sc2n1 (single isomer, unassigned) [Example 14-17]
The IC50 of the first is higher: 50 to 200 nM for the first, 1 to 50 nM for the second. The second is the more potent here.

First: CN[C@@H]1CCN(c2ccc3c(c2)CC[C@@H](NC(=O)c2sc4nc(C)cnc4c2N)C3)C1 (single isomer, unassigned) [Example 11-28]
Second: CN[C@@H]1CCN(c2ccc3c(c2)CC[C@H](NC(=O)c2sc4nc(C)cnc4c2N)C3)C1 (single isomer, unassigned) [Example 11-27]
The IC50 of the first is higher: over 2000 nM for the first, 200 to 2000 nM for the second.

Compared with `CO[C@H]1CN(c2cc(F)c3c(c2C#N)CC[C@@H](NC(=O)c2sc4nc(C)ccc4c2N)C3)C[C@@H]1N` (single isomer, unassigned) [Example 14-24], `CO[C@H]1CN(c2cc(F)c3c(c2C#N)CC[C@H](NC(=O)c2sc4nc(C)ccc4c2N)C3)C[C@@H]1N` (single isomer, unassigned) [Example 14-23] is lower in IC50: over 2000 nM for the first, 200 to 2000 nM for the second.

`Cc1ccc2c(N)c(C(=O)N[C@H]3COc4cc(N5CCNCC5)ccc4[C@@H]3C)sc2n1` (single isomer, unassigned) [Example 11-16] and `Cc1ccc2c(N)c(C(=O)N[C@H]3CCc4cc(N5CCNCC5)ccc4C3)sc2n1` (single isomer, unassigned) [Example 11-21] cannot be ordered by IC50: over 2000 nM for the first, over 2000 nM for the second.

Compared with `Cc1nc2sc(C(=O)N[C@H]3CCc4c(C#N)c(N5CCNCC5)cc(F)c4C3)c(N)c2s1` (single isomer, unassigned) [Example 14-14], `Cc1nc2sc(C(=O)N[C@@H]3CCc4c(C#N)c(N5CCNCC5)cc(F)c4C3)c(N)c2s1` (single isomer, unassigned) [Example 14-13] is higher in IC50: 200 to 2000 nM for the first, over 2000 nM for the second. The first is the more potent here.

`Cc1cnc2c(N)c(C(=O)N[C@H]3CCc4cc(N5C[C@@H]6C[C@H]5CN6)ccc4C3)sc2n1` (single isomer, unassigned) [Example 11-29] and `Cc1cnc2c(N)c(C(=O)N[C@@H]3CCc4cc(N5C[C@@H]6C[C@H]5CN6)ccc4C3)sc2n1` (single isomer, unassigned) [Example 11-30] fall in the same range of IC50: 200 to 2000 nM for the first, 200 to 2000 nM for the second.

Compared with `Cc1cnc2c(N)c(C(=O)N[C@@H]3CCc4cc(N5CCNCC5)ccc4C3)sc2n1` (single isomer, unassigned) [Example 11-20], `Cc1cnc2c(N)c(C(=O)N[C@H]3CCc4cc(N5CCNCC5)ccc4C3)sc2n1` (single isomer, unassigned) [Example 11-19] is lower in IC50: over 2000 nM for the first, 200 to 2000 nM for the second.

Compared with `Cc1cnc2c(N)c(C(=O)N[C@H]3CCc4cc(N5CCNCC5)c(F)cc4C3)sc2n1` (single isomer, unassigned) [Example 21-12], `Cc1cnc2c(N)c(C(=O)N[C@@H]3CCc4cc(N5CCNCC5)c(F)cc4C3)sc2n1` (single isomer, unassigned) [Example 21-11] is higher in IC50: 200 to 2000 nM for the first, over 2000 nM for the second.

Compared with `Cc1ccc2c(N)c(C(=O)N[C@@H]3CCc4cc(N5CC6CNCC(C5)O6)cc(F)c4C3)sc2n1` (single isomer, unassigned) [Example 11-40], `Cc1ccc2c(N)c(C(=O)N[C@@H]3CCc4c(C#N)c(N5CC6CNCC(C5)O6)cc(F)c4C3)sc2n1` (single isomer, unassigned) [Example 14-16] is higher in IC50: 50 to 200 nM for the first, 200 to 2000 nM for the second.

First: Cc1cnc2c(N)c(C(=O)N[C@@H]3CCc4cc(N5CCNCC5)cc(F)c4C3)sc2n1 (single isomer, unassigned) [Example 11-37]
Second: Cc1cnc2c(N)c(C(=O)N[C@@H]3CCc4c(C#N)c(N5CCNCC5)cc(F)c4C3)sc2n1 (single isomer, unassigned) [Example 14-11]
The IC50 of the first is higher: over 2000 nM for the first, 200 to 2000 nM for the second. The second is the more potent here.

First: Cc1ccc2c(N)c(C(=O)N[C@H]3CCc4c(F)c(N5CC6CCC(C5)N6)cc(F)c4C3)sc2n1 (single isomer, unassigned) [Example 22-5]
Second: Cc1ccc2c(N)c(C(=O)N[C@@H]3CCc4c(C#N)c(N5CC6CCC(C5)N6)cc(F)c4C3)sc2n1 (single isomer, unassigned) [Example 14-18]
The IC50 of the first is lower: 1 to 50 nM for the first, over 2000 nM for the second.

First: Cc1ccc2c(N)c(C(=O)N[C@@H]3CCc4c(C#N)c(N5CCNCC5)cc(F)c4C3)sc2n1 (single isomer, unassigned) [Example 14-9]
Second: Cc1ccc2c(N)c(C(=O)N[C@H]3CCc4c(C#N)c(N5CCNCC5)cc(F)c4C3)sc2n1 (single isomer, unassigned) [Example 14-10]
The IC50 of the first is higher: over 2000 nM for the first, 200 to 2000 nM for the second. The second is the more potent here.

`[2H]C1([2H])c2c(F)cc(N3CCNCC3)cc2OC[C@H]1NC(=O)c1sc2nc(C)ccc2c1N` (single isomer, unassigned) [Example 33-2] and `Cc1ccc2c(N)c(C(=O)N[C@H]3COc4cc(N5CCNCC5)ccc4[C@@H]3C)sc2n1` (single isomer, unassigned) [Example 11-17] cannot be ordered by IC50: over 2000 nM for the first, over 2000 nM for the second.

Compared with `CO[C@H]1CN(c2ccc3c(c2)OC[C@H](NC(=O)c2sc4nc(C)sc4c2N)C3)CC1N` (stereo partly drawn) [Example 118, 6-amino-N-[(3R)-7-[(3,4S)-3-amino-4-methoxypyrrolidin-1-yl]-3,4-dihydro-2H-1-benzopyran-3-yl]-2-methylthieno[2,3-d][1,3]thiazole-5-carboxamide], `Cc1nc2sc(C(=O)N[C@@H]3CCc4cc(N5CCNCC5)ccc4C3)c(N)c2s1` (single isomer, unassigned) [Example 11-34] is higher in IC50: 200 to 2000 nM for the first, over 2000 nM for the second.

First: Cc1cnc2c(N)c(C(=O)N[C@H]3CCc4cc(N5C[C@H]6C[C@@H]5CN6)ccc4C3)sc2n1 (single isomer, unassigned) [Example 11-31]
Second: Cc1ccc2c(N)c(C(=O)N[C@H]3CCc4c(C#N)c(N5CC6CNCC(C5)O6)cc(F)c4C3)sc2n1 (single isomer, unassigned) [Example 14-15]
The IC50 of the first is higher: 200 to 2000 nM for the first, 1 to 50 nM for the second. The second is the more potent here.

Same assay, conditions: biochemical IC50 range, Ubiquitin-Rhodamine 110 assay, Example A-3; read-out: USP25 A-3

First: CO[C@@H]1CN(c2ccc3c(c2)OC[C@H](NC(=O)c2sc4nc(C)cnc4c2N)C3)C[C@@H]1N [Example 147, 7-amino-N-[(3R)-7-[(3S,4R)-3-amino-4-methoxypyrrolidin-1-yl]-3,4-dihydro-2H-1-benzopyran-3-yl]-3-methylthieno[2,3-b]pyrazine-6-carboxamide]
Second: CN[C@H]1CN(c2ccc3c(c2)OC[C@H](NC(=O)c2sc4nc(C)ccc4c2N)C3)C[C@@H]1CF [Example 662, 3-amino-N-[(3R)-7-[(3S,4R)-3-(fluoromethyl)-4-(methylamino)pyrrolidin-1-yl]-3,4-dihydro-2H-1-benzopyran-3-yl]-6-methylthieno[2,3-b]pyridine-2-carboxamide]
The IC50 of the first is higher: 200 to 2000 nM for the first, 1 to 50 nM for the second. The second is the more potent here.

First: Cc1ccc2c(N)c(C(=O)N[C@H]3CCc4cc(N5C[C@H](CF)[C@H](N)C5)ccc4C3)sc2n1 [Example 657, 3-amino-N-[(2S)-6-[(3S,4S)-3-amino-4-(fluoromethyl)pyrrolidin-1-yl]-1,2,3,4-tetrahydronaphthalen-2-yl]-6-methylthieno[2,3-b]pyridine-2-carboxamide]
Second: Cc1ccc2c(N)c(C(=O)N[C@H]3COc4cc(N5C[C@@H](N)[C@](C)(CF)C5)ccc4C3)sc2n1 [Example 661, 3-amino-N-[(3R)-7-[(3R,4S)-4-amino-3-(fluoromethyl)-3-methylpyrrolidin-1-yl]-3,4-dihydro-2H-1-benzopyran-3-yl]-6-methylthieno[2,3-b]pyridine-2-carboxamide]
The IC50 of the first is higher: 200 to 2000 nM for the first, 50 to 200 nM for the second. The second is the more potent here.

`O=C(N[C@H]1COc2cc(N3CCNCC3)ccc2C1)c1ccc(NCc2ccc(Cl)cc2Cl)nc1` [Example 697, 6-{[(2,4-dichlorophenyl)methyl]amino}-N-[(3R)-7-(piperazin-1-yl)-3,4-dihydro-2H-1-benzopyran-3-yl]pyridine-3-carboxamide] and `Cc1ccc2c(N)c(C(=O)N[C@H]3CCc4c(F)c(N5CC6CCC(C5)N6)cc(F)c4C3)sc2n1` (single isomer, unassigned) [Example 603] fall in the same range of IC50: 1 to 50 nM for the first, 1 to 50 nM for the second.
